The values below come from US20240374566A1, “METHODS AND COMPOSITIONS FOR THE TREATMENT OF CANCER” (Lankenau Institute for Medical Resesarch, priority 2017, published 2024).

Entries after “also recorded” stand apart in the source; their conditions may differ.

In data set [1] the test system is allogeneic mouse concepti. The note with it: in vivo; cited from earlier work.
The conditions of data set [2]: mouse, rat and dog; cited from earlier work.
The test system of data set [3] is human xenograft tumor. The note with it: mice; cited from earlier work.
For data set [4], the system named is lymphoma, lung cancer and sarcoma. Conditions: cited from earlier work.
The test system of data set [5] is large, vascularized tumors. Conditions: requires IFNγ receptor expression on normal host cells; cited from earlier work.
The subject of data set [6] is 4T1 pulmonary metastases. The experiment in a line: Neovascular density (anti-Cav1 staining) within 4T1 lung metastases after treatment. In kind it is in vivo, mouse. On the procedure:
Pulmonary metastasis studies with the 4T1 mouse mammary carcinoma-derived cell line (Aslakson et al. (1992) Cancer Res., 52:1399-1405) were carried out by injecting 1×10^4 cells in 50 μl serum free medium into the number 4 mammary fatpad to establish an orthotopic tumor which then spontaneously metastasized to the lungs. For visualization of the pulmonary metastasis burden, lungs were inflated with 15% India ink dye, washed, and bleached in Fekete's solution. For immunofluorescence detection of pulmonary metastasis vasculature, lungs were inflated with 50% OCT and frozen in OCT blocks followed by 4 μm sectioning using the CryoJane tape transfer system. Blood vessels within the metastatic nodules were visualized by fluorescence staining with rabbit anti-mouse Caveolin1 polyclonal antibody (Cat. #3238S, Cell Signaling Technology, Boston, MA). For quantitatively evaluating vessel density within the metastatic nodules, multiple fields were acquired per mouse lung on a Zeiss inverted microscope with 40× objective. The pixel density corresponding to the positive Cav1 signal per field was determined in Adobe Photoshop, and these values were then averaged to determine the overall mean value per mouse. For IDO1 inhibitor treatment studies, mice bearing established metastases at 3.5 weeks following 4T1 engraftment were administered 50 mg/kg epacadostat (ChemieTek; Indianapolis, IN) in 100 μl vehicle (3% N,N-dimethylacetamide, 10% 2-hydroxylpropyl-β-cyclodextrin) by oral gavage b.i.d. (twice daily) over 72 hours at which point the animals were euthanized for analysis. Positive control animals were administered a single intraperitoneal (i.p.) injection of 50 mg/kg cyclophosphamide (Baxter; Deefield, IL) in 100 μl sterile saline and euthanized 72 hours later for analysis. […]

For data set [7], the system named is 4T1 lung metastases. The experiment in a line: Hypoxyprobe staining of hypoxic regions within 4T1 lung metastases. In kind it is in vivo, mouse. Conditions: epacadostat 50 mg/kg oral gavage b.i.d. over 72 hours. On the procedure: For IDO1 inhibitor treatment studies looking at tumor hypoxia, mice bearing established metastases at 3.5 weeks following 4T1 engraftment were administered either 50 mg/kg epacadostat (ChemieTek; Indianapolis, IN) in 100 μl vehicle (3% N,N-dimethylacetamide, 10% 2-hydroxylpropyl-β-cyclodextrin) by oral gavage b.i.d. (twice daily) over 72 hours, or 400 mg/kg indoximod (Sigma-Aldrich; St. Louis, MO) in 100 μl vehicle (0.5% Tween 80/0.5% Methylcellulose v/v in water) by oral gavage b.i.d. (twice daily) over 72 hours.
For visualizing regions of hypoxia within 4T1 lung metastases, the Hypoxyprobe™ Green Kit (Hydroxyprobe, Inc.; Burlington, MA) was used as per the manufacturer's instructions. 1 hour prior to euthanasia, mice were injected intravenously with 60 mg/kg Hypoxyprobe™ (pimonidazole HCl). Lung sections were stained with the FITC-conjugated mouse IgG1 monoclonal antibody (4.3.11.3) provided by the supplier that specifically binds to protein adducts of pimonidazole.

In data set [8] the test system is tumors. The note with it: clinical study; cited from earlier work.

For `Cn1cc(C[C@H](N)C(=O)O)c2ccccc21` [1MT, 1-methyl-tryptophan], the “rejection of allogeneic mouse concepti” value in data set [1] was “could elicit T cell-dependent rejection of allogeneic mouse concepti”.

As to `Cn1cc(-c2ccc3c(c2)CCN3C(=O)Cc2cccc(C(F)(F)F)c2)c2c(N)ncnc21` [GSK2606414], in data set [2], the blood clearance entry is given as “low to moderate” and the oral bioavailability entry is recorded as “good”.

For `Cc1cccc(CC(=O)N2CCc3c2ccc(-c2cn(C)c4ncnc(N)c24)c3F)n1` [GSK2656157], in data set [3], the “human xenograft tumor growth” value is “delay of various human xenograft tumor growths”; the “weight loss and effect on pancreatic insulin production” value is “without significant weight loss and/or effect on pancreatic insulin production”. Also, in data set [2], the blood clearance entry is on record as “low to moderate” and the oral bioavailability entry is “good”.

Turning to `C=CC1=C(C)c2cc3[n-]c(cc4[n-]c(cc5nc(cc1n2)C(C)=C5C=C)c(C)c4CCC(=O)O)c(CCC(=O)O)c3C.[Zn+2]` [ZnPPIX, zinc protoporphyrin IX], the “antitumor effect in mice” value in data set [4] was “effective in reducing lymphoma, lung cancer and sarcoma”.

Regarding `O=P1(N(CCCl)CCCl)NCCCO1` (centres unmarked) [cyclophosphamide], the tumor rejection result in data set [5] is given as “immune-dependent rejection of large, vascularized tumors”. In data set [6] (single i.p. injection of 50 mg/kg, evaluated 72 hours later, compared with the effect of epacadostat), the “metastatic tumor neovascularization, positive control (in words)” value is listed as “comparable”.

As for `NS(=O)(=O)NCCNc1nonc1C(=NO)Nc1ccc(F)c(Br)c1` [epacadostat], in data set [7], the “hypoxia in metastatic tumor (Hypoxyprobe staining) relative to vehicle” value is reported as “clear evidence of elevated hypoxia”. The “reduction in metastatic tumor neovascularization relative to vehicle alone” value in data set [6] (50 mg/kg oral gavage b.i.d. over 72 hours, established 4T1 pulmonary metastases 3.5 weeks after engraftment, P<0.01) is reported as 3.2 fold. For the same molecule, the “metastatic tumor neovascularization relative to vehicle (in words)” value in data set [6] (epacadostat 50 mg/kg oral gavage b.i.d. over 72 hours, established 4T1 pulmonary metastases) is recorded as “reduced level of neovascularization; also recorded: clear reduction in metastatic tumor neovascularization”.

As for `Cn1cc(C[C@@H](N)C(=O)O)c2ccccc21` [indoximod, 1-methyl-D-tryptophan], the “sensitization of tumors to salvage chemotherapy” value in data set [8] is given as “appeared to sensitize tumors to salvage chemotherapy”.
